Results reported in patent US20100009949A1, “NOVEL METHOD” (BioXell S.p.A., priority 2001, published 2010).

What was measured:
prostate [1] = settings: phase II clinical trials for BPH, preliminary results (Montorsi, 2005); cited from earlier work
prostate [2] = settings: intact and castrated, testosterone-replaced rats; Crescioli et al. 2004; cited from earlier work
KGF receptor (KGFR) = experiment: KGF-induced KGFR autotransphosphorylation (immunoprecipitation, Western blot) in DU145 cells; format: cell-based, human
Experimental: (§1) Immunoprecipitation and Western blot analysis. Protein extraction and immunoprecipitation were performed as previously described (Bonaccorsi et al. 1997). Briefly, cells were scraped in PBS supplemented with 1 mM Na3VO4, centrifuged and resuspended in lysis buffer (20 mM Tris, pH 7.4, 150 mM NaCl, 0.25% NP-40, 1 mM Na3VO4, 1 mM phenylmethyl-sulfonyl fluoride (PMSF)). After protein measurement (Coomassie kit), aliquots of cell lysates containing equal amount of proteins (500 ug) were incubated for 1 hour with 30 ul of Protein A (or Protein G)-Sepharose for preclearing. Precleared lysates were then incubated for 1 hour using 5 ug of specific anti-KGFR antibodies on ice followed by overnight incubation at 4° C. with 30 ul of Protein A (or Protein G)-Sepharose. The immunobeads were washed three times in lysis buffer and then resuspended in 10 ul of 2× Laemmli's reducing sample buffer (62.5 mM Tris pH 6.8, 10% glycerol, 2% SDS, 2.5% pyronin and 200 mM dithiothreitol), boiled at 95° C. for 5 minutes and loaded onto 8% polyacrylamide-bisacrylamide gels. […]

DU145 cells [3] = experiment: Annexin-V binding assay (phosphatidylserine exposure, apoptosis); format: cell-based, human; settings: DU145, 8 hours, 1×10^−8 M; control 57±1.7; n=6, p=0.017
Experimental: Annexin-V binding assay. Annexin-V binding assay was used to detect translocation of membrane phosphatidylserine (PS) from the inner to the outer side of the plasma membrane, since the exposure of PS is considered an early sign of apoptosis (Kagan et al. 2000). The assay was performed by using the “Annexin-V-Fluos staining Kit” (Roche). Before treatment, cells (1×10^6) were kept in serum-free medium for at least 24 h, then cells were incubated for 8 hours in the presence or absence of Compound 1 (1×10^−8 M), cells (1×10^6) were washed, trypsinized, centrifuged. After two washed in PBS, cells were resuspended in 100 ul of incubation buffer (supplied by manufacturer), 2 ul of Annexin-V-Fluos labeling reagent (Ann-V-F, Annexin-V conjugated to fluorescein, supplied at the 200× concentration by Roche) and 2 ul of propidium iodide solution (PI, 30 ug/ml in PBS) were added. After incubation (15 minutes in the dark at room temperature) samples were analyzed by flow cytometry. For each experimental set, two cell suspensions were prepared for instrumental setting and data analysis: 1) by omitting both Ann-V-F and PI staining (nonspecific fluorescence sample), and 2) by omitting only the PI staining (sample for compensation, see below). […] Fluorescence compensation was set by acquiring […] labeled with only Ann-V-F. For each sample 10.000 events were recorded at flow rate of 200/300 cells/s. […]

PI3K = PI3K assay (immunokinase) after KGF stimulation of DU145 cells; format: cell-based, human; settings: DU145, 1×10^−8 M, KGF 10 ng/ml
Experimental: PI3K assay: PI3K activity was evaluated in vitro assay as previously described (Luconi et al. 2004). Briefly, cells were stimulated with KGF (5 min) in the presence or absence of 1-alpha-fluoro-25-hydroxy-16,23E-diene-26,27-bishomo-20-epi-cholecalciferol, scraped in PBS supplemented with 1 mM Na3VO4, centrifuged and extracted with lysis buffer (20 mM Tris, pH 7.4, 137 mM NaCl, 1 mM CaCl2, 1 mM MgCl2, 1% NP-40, 1 mM Na3VO4, 1 mM PMSF). After measurement of proteins, the aliquots of cell extracts containing equivalent amount of proteins (500 ug) were incubated for 1 hour with 50 ul of Protein G-Sepharose for preclearing. Precleared lysates were then incubated with an antiphosphotyrosine PY20 antibody overnight at 4° C. with 50 ul of Protein G-Sepharose as described above. The Sepharose beads were washed two times with lysis buffer and twice with a 10 mM Tris-HCl (pH 7.4) containing 0.1 mM EGTA and 5 mM LiCl. After removal of the last wash, the beads were suspended in kinase buffer (10 mM Tris-HCl, 150 mM NaCl, 5 mM EDTA) containing 20 ug of L-alpha-phosphatidylinositol, 25 mM MgCl2 and 10 uCi of [gamma-^32P]ATP, and incubated for 20 min at room temperature. The reaction was stopped by the addition of 60 ul of HCl 6M and 160 ul of a mixture of chloroform and methanol (1:1). […] Quantifications of the bands was performed using a Kodak image analysis system.

PC3 cells = experiment: Cell proliferation assay (cell counting), PC3; format: cell-based, human; settings: control 100±17
Experimental: (§2) Cell proliferation assay: All proliferation tests were performed after 24 h of cell starvation in phenol red- and serum-free medium containing 0.1% BSA. After starvation, cells were incubated in the same medium as before, with or without specific stimuli. Thereafter, cells were trypsinized, and each experimental point was derived from counting in the hemocytometer and then averaging at least six different fields for each well as previously reported (Crescioli et al. 2003). Experiments were performed seeding 4×10^4 cells onto 12-well plates in growth medium and incubated for 48 h with: 1) increasing concentrations of 1-alpha-fluoro-25-hydroxy-16,23E-diene-26,27-bishomo-20-epi-cholecalciferol (1×10^−12, 1×10^−11, 1×10^−10, 1×10^−9, 1×10^−8 M) with or without fixed concentration of KGF (10 ng/ml) or fixed concentration of bFGF (10 ng/ml); 2) fixed concentration of LY 294002 (10 nM) with or without KGF (10 ng/ml). In the same experiment each experimental point was repeated in triplicate and experiments were performed at least three times. Cell growth results are expressed as the percentage of growth compared with their relative controls.

DU145 cells [4] = experiment: Matrigel invasion assay (Boyden chambers), DU145; format: cell-based, human; settings: 1×10^−8 M, KGF 10 ng/ml, 24 h, no pre-incubation
Experimental: Invasion assay: Invasion assays were performed as described previously (Bonaccorsi et al. 2000 and 2004a and 2004b) according to Albini et al. (1987) using the Boyden chambers equipped with 8 um porosity polyvinylpyrrolidone-free polycarbonate filters (VWR International, Milan, Italy). A thin layer of Matrigel solution (50 ug/ml) was overlaid on the upper surface of the filter and allowed to gel by incubating the filters at 37° C. for 30 min. Cell ability to invade the substrate was assessed by using some different stimuli: keratinocyte growth factor, KGF (10 ng/ml), in presence or in absence of the inhibitor, 1-alpha-fluoro-25-hydroxy-16,23E-diene-26,27-bishomo-20-epi-cholecalciferol (1×10^−8 M). These molecules were added to the bottom well of the Boyden chambers. 9.5×10^4 cells were then added to the top of the chambers and incubated for 24 h at 37° C. Migrated cells were quantitated by counting cells with a Zeiss microscope (Oberkochen, Germany) equipped with brightfield optics (40× magnification). Results are expressed as the percentage of number of migrated cells per high-power field respect to control.

human BPH cells = settings: primary cultures of human BPH cells; Crescioli et al. 2004; cited from earlier work
AKT = AKT serine phosphorylation (Western blot) in KGF-stimulated DU145 cells; format: cell-based, human; settings: DU145, 1×10^−8 M, KGF 10 ng/ml
Experimental: as §1

DU145 cells [5] = experiment: Cell proliferation assay (cell counting), DU145; format: cell-based, human
Experimental: as §2
Statistical analysis: All the data are shown as mean±SEM of the indicated number of experiments. Statistical analysis was performed with ANOVA and Student's T test for unpaired and, when applicable, for paired data. IC50 for dose response curves were calculated using the program ALLFIT.

C=C1/C(=C\C=C2/CCC[C@]3(C)C([C@@H](C)C/C=C/C(O)(CC)CC)=CC[C@@H]23)C[C@@H](O)C[C@@H]1F [Compound 1, 1-alpha-fluoro-25-hydroxy-16,23E-diene-26,27-bishomo-20-epi-cholecalciferol]
Prostate volume compared to placebo (prostate [1]): significant reduction of prostate volume
Effect on prostate growth in vivo (prostate [2]): inhibition of prostate growth
Effect on KGF-induced autotransphosphorylation of KGFR (KGF receptor (KGFR); DU145, 5 minutes pre-incubation, 1×10^−8 M, KGF 10 ng/ml): abrogated
Inhibitory effect on KGFR autophosphorylation after alpha-amanitin (KGF receptor (KGFR); DU145, after 4 hours incubation with 4 ug/ml alpha-amanitin): still present
percentage Annexin-V positive live cells (DU145 cells [3]): 62±1.2 percentage
Effect on KGF-stimulated PI3K activity (PI3K): inhibited the stimulatory effect of KGF on PI3K activity
percentage number of cells, KGF + Compound 1 (PC3 cells; PC3, KGF 10 ng/ml + Compound 1 1×10^−8 M): 69.9±9.9 percentage
Effect on KGF-stimulated Matrigel invasion of DU145 cells (DU145 cells [4]): completely inhibited
Effect on prostate cell proliferation in vitro (human BPH cells): decrease prostate cell proliferation
Effect on KGF-stimulated AKT serine phosphorylation (AKT): inhibited KGF-stimulated AKT serine phosphorylation
percentage number of cells, bFGF + Compound 1 (DU145 cells [5]; DU145, bFGF 10 ng/ml + Compound 1 1×10^−8 M, control 100±8.6): 74.1±9.2 percentage
IC50 (DU145 cells [5]; Homo sapiens, DU-145, basal, 48 h, cell counting, read-out: IC50 of inhibition of basal DU145 cell proliferation): 0.0221 ± 0.0191 nM
Inhibition of KGF-stimulated DU145 proliferation (DU145 cells [5]; KGF 10 ng/ml, 48 h, increasing concentrations of the analogue): completely and dose-dependently inhibits proliferation

bFGF: growth factor used as stimulus of DU145 proliferation (10 ng/ml)
percentage number of cells, bFGF alone (DU145 cells [5]; DU145, bFGF 10 ng/ml, control 100±8.6): 138±19.5 percentage

B1: KGF: Keratinocyte growth factor, stimulus, obtained from Prepro Tech EC (protein, UniProt P21781 32-194, looked up)
Fibroblast growth factor 7: CNDMTPEQMATNVNCSSPERHTRSYDYMEGGDIRVRRLFCRTQWYLRIDKRGKVKGTQEMKNNYNIMEIRTVAVGIVAIKGVESEFYLAMNKEGKLYAKKECNEDCNFKELILENHYNTYASAKWTHNGGEMFVALNQKGIPVRGKKTKKEQKTAHFLPMAIT
percentage number of cells, KGF alone (PC3 cells; PC3, KGF 10 ng/ml): 121.3±13 percentage
